Test results: ChEMBL document CHEMBL1201862, “PubChem BioAssay data set” (2004)
Activity calls are given as the source filed them.

What was measured:
[1] = Luminescent dose response cell-based high throughput screening assay for inhibitors of the Janus kinase 2 mutant JAK2V617F. [Related pubchem assays: 1446 (Primary screen.), 1521 (Confirmation assay.), 1486 (Counter screen.)]; type: functional
[2] = microbe, parasite or virus in culture; type: functional; conditions: Mycobacterium tuberculosis
[3] = Vero E6 cell cytotoxicity, dose response, cytotoxicity control for non-replicating M. tuberculosis project, secondary assay (AID 492998); type: functional, VeroE6; conditions: Vero C1008
cells [4] = type: functional
Estrogen receptor [5] = molecular target: T1, Estrogen receptor (Homo sapiens, UniProt P03372); experiment: ERα–SRC-3 coactivator interaction inhibitors, confirmation, orthogonal assay, biochemical, ELISA, streptavidin-HRP readout (AID 1079)
T1 sequence (P03372 whole entry): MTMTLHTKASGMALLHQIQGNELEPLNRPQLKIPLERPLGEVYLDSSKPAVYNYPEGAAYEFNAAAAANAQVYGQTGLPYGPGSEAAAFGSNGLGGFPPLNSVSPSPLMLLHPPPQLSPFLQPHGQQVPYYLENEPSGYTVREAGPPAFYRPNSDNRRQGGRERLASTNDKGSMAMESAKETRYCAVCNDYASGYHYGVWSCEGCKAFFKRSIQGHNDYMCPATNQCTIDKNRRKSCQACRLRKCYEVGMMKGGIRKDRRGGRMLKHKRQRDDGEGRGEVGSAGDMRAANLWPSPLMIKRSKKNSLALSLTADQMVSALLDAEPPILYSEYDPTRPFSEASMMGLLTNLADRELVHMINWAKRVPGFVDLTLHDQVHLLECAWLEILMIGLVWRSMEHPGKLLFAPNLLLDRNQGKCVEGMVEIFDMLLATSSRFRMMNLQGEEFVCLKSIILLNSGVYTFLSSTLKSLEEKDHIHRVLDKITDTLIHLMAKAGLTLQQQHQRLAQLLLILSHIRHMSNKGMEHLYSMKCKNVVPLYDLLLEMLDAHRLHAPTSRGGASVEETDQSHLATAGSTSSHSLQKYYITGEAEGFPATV

[6] = molecular target: Solute carrier family 12 member 2/member 5 (Homo sapiens, UniProt P55011+Q9H2X9); experiment: KCC2 and NKCC1 inhibition by rubidium flux, cell-based, NKCC1 counter-screen (AID 1734); type: functional, HEK293
Estrogen receptor [7] = molecular target: T1, Estrogen receptor; experiment: potentiators of ERα–SRC-1 coactivator binding, dose response, biochemical, TR-FRET, ERα LBD (AID 737)
[8] = inhibitors of intracellular T. cruzi replication, confirmation, NIH3T3 host cells, beta-gal luminescence (AID 2044); type: functional, cell-based;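 also: intracellular parasites grown in NIH/3T3 mouse fibroblasts as host cells; luminescent beta-galactosidase reporter signal from transgenic T. cruzi replicating inside host cells; inhibitors lower the luminescence signal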
[9] = cytotoxicity toward NIH3T3 fibroblasts, dose response, counter-screen, cell-based, ATP luminescence, mouse fibroblasts (AID 2010); type: functional;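 also: cells exposed to compound for about 90 hours before reading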
cells [10] = experiment: cells
[11] = molecular target: E3 ubiquitin-protein ligase Mdm2 (Homo sapiens, UniProt Q00987); experiment: enhancers of MDM2-luciferase reporter signal, concentration-effect titration, project on inhibitors of MDM2 ubiquitin ligase, cellular assay, luminescent readout, 384-well plate format (AID 1394); type: functional;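 also: MDM2 E3 inhibitors raise luminescence so EC50 is for signal enhancement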
Cytochrome P450 2C19 = Cytochrome P450 2C19 (Homo sapiens, UniProt P33261); experiment: Cytochrome panel assay with activity outcomes. Panel member name: p450-cyp2c19 Compounds with AC50 equal or less than 10 uM are considered active; type: functional
Chain of Cytochrome P450 2C19 (P33261 whole entry): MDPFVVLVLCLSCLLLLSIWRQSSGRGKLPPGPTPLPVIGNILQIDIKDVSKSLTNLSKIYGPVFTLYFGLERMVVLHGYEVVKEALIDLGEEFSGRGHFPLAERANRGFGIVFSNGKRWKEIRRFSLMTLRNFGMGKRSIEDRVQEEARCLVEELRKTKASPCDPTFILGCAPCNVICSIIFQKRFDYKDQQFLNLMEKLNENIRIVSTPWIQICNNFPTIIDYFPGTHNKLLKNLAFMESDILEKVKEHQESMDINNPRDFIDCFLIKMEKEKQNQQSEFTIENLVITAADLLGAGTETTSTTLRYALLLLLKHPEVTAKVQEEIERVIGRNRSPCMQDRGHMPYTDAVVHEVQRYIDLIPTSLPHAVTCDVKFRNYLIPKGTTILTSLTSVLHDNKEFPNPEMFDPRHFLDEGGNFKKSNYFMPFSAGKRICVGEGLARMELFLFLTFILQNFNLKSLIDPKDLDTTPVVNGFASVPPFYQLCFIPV

Chain of E3 ubiquitin-protein ligase Mdm2 (Q00987 whole entry): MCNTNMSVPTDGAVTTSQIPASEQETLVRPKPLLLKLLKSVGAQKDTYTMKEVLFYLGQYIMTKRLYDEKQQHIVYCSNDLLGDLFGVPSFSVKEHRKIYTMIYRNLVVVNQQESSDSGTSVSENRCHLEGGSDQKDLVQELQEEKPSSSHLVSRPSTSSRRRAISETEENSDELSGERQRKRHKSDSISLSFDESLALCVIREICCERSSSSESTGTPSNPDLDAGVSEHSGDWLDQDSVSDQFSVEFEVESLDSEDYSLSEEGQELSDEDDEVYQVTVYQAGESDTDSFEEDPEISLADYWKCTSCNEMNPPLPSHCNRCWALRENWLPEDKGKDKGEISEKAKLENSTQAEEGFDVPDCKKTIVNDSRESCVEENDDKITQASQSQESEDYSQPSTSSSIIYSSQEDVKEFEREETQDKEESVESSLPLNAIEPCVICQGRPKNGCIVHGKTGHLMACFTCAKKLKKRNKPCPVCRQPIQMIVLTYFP

O=C(O)c1[nH]c(=O)[nH]c(=O)c1F
IC50 [1]: 4.12 µM (active)
CC50 [2]: > 40 µM (active)
CC50 [3]: > 20 µM (active)
IC50 (cells [4]): 5.96 µM (active)

O=C(CCCCCn1c(=S)[nH]c2ccccc2c1=O)N1CCN(c2ncccn2)CC1
IC50 (Estrogen receptor [5]): 0.12 µM (not active)

CCCn1c(N)c(C(=O)CSc2nnc(Cc3ccccc3)o2)c(=O)n(C)c1=O
IC50 [6]: 1.6 µM (active)

CC(C)CCNC(=O)COc1ccc2c3c(c(=O)oc2c1)CCC3
EC50 (Estrogen receptor [7]): 13.3 µM (not active)

Cc1c(O)ccc2c(CN3CCN(Cc4ccccc4)CC3)cc(=O)oc12
EC50 [8]: < 0.1 µM (active)
EC50 [9]: > 60 µM (not active)
EC50 (cells [10]): 0.024 µM (active)

CCN1CCN(C(=O)CCc2nc3ccccc3c(=O)[nH]2)CC1
EC50 [11]: 12.5 µM (not active)
AC50 (Cytochrome P450 2C19): inconclusive
